According to patent US20050043262A1, “Novel specific inhibitor of the cyclin kinase inhibitor p21Waf1/Cip1 and methods of using the inhibitor” (priority 2000, published 2005):

What was measured:
[1] = system: MCF7 cells; assay: Nuclear morphology (Hoechst 33258) in MCF7 cells; type: cell-based, human; conditions: serum stimulated 24 hours after lipofection
Method: Evaluation of Nuclear Morphology: Cells were seeded in 6-well culture dishes and treated with ODNs as described. The cells were then immersed in methanol for at least 10 min. Cells were stained in 1 μg/ml Hoechst 33258 in water with 1% nonfat dry milk. After staining for 8-10 min, the cells were rinsed in water and dried completely. Nuclear morphology was visually evaluated by fluorescence microscopy.
Apoptosis is the end result of an elaborate cascade of molecular events that ultimately result in programmed cell death; thus, a variety of tests are generally used to determine whether apoptosis is occurring. The methods to study apoptosis were employed: (a) assessment of nuclear morphology; (b) PARP cleavage; and (c) caspase-3 cleavage. Serum-starved cells were transfected with antisense p21 ODN or the control ODN, fixed, stained with Hoechst 33258, and examined under UV light. MCF7 and T47D cells were grown to confluence, serum starved for 24 hours, and lipofected with antisense p21 or control ODN. The cells were subsequently serum stimulated for another 24 hours, fixed, stained with Hoechst 33258, and examined under UV light at X400.

[2] = system: caspase-3; assay: Caspase-3 activity (CaspACE colorimetric assay) in MCF-7 cells; type: cell-based, human; conditions: MCF-7 cells (lack caspase-3)
Method: Caspase-3 Activity: The CaspACE Assay System was used to measure the activity of caspase-3. After incubation under appropriate conditions, the cells were lysed in CaspACE lysis buffer, and protein concentration was determined by dye reagent protein assay (Bio-Rad, Hercules, Calif.). […] The lysates with equal protein amounts were incubated with DEVD-p-nitroaniline substrate for 4 hours at 37° C. The reaction products were detected at 405 nm using a PowerWave X automated plate reader (Bio-Tek Instruments).
As another confirmatory test for antisense p21 ODN-mediated apoptosis, caspase-3 activation was assessed. Members of the caspase family of proteases are essential components of an evolutionarily conserved cell death pathway in multicellular eukaryotes and play key roles in inflammation and apoptosis in mammalian cells. Caspase-3 has substrate specificity for the amino acid sequence DEVD (Asp-Glu-Val-Asp) and is inhibited by the tetrapeptide inhibitor Ac-DEVD-CHO; its catalytic activity was assessed colorimetrically using the labeled Ac-DEVD-pNA substrate. […] T47D cells were grown to confluence, serum starved for 24 hours, and lipofected with antisense p21 or control ODN at the concentrations indicated. Caspase-3 activity was assessed as described in “Capase-3 Activity” using a colorimetric method. […]

[3] = system: Met-1 cells; conditions: Weiss et al., Cancer Lett. 2003; cited from earlier work
[4] = system: laminin; assay: Laminin production and secretion (immunoblot of lysate and conditioned media); type: cell-based, rat; conditions: VSM cells, 400 nM, TGF-β 0.1 to 10 ng/ml for 4 hours
Method: Western blots: Cells were grown to confluence in 6 cm culture dishes and serum deprived. After transfection and/or treatment with appropriate agonist, conditioned medium was removed and saved and the cells were washed with phosphate-buffered saline and lysed in lysis buffer. Both supernatant and cell lysate were normalized to the lysate protein concentrations and Western blotted as described (Weiss, R. H.; et al. Am. J. Physiol. 274: C1521-C1529; 1998).
The p21 influences on matrix protein secretion in VSM cells were determined. Levels of the matrix proteins laminin and fibronectin were examined in both TGF-β stimulated lysate and conditioned media of cells in which p21 expression had been attenuated. The cells were transfected with either antisense p21 (SEQ. ID NO.:1) (400 nM), or random sequence control (SEQ. ID NO.:3) (400 nM) oligodeoxynucleotide, and then stimulated with TGF-β at for 0.1 to 10 ng/ml for 4 hours. Conditioned media and cell lysate were collected, and both medium and lysate volumes were normalized for the protein content in total cell lysate to exclude any skewing of the data due to cell proliferation. The proteins were electrophoresed and immunoblotted with either fibronectin (after immunoprecipitation to eliminate extraneous bands which appeared in the absence of this procedure) or laminin antibody.

[5] = system: A431 cells; assay: [3H]thymidine incorporation (DNA synthesis) in A431 cells; type: cell-based, human
Method: FIG. 9A-D are bar graphs showing Antisense p21^Waf1/Cip1 oligodeoxynucleotide has no significant effect DNA synthesis in PMA-inhibitable A431 cells, as described in Example II, infra. […] A431 cells were placed in serum-free medium overnight and then stimulated with (A) PDGF-BB (30 ng/ml), (B) 10% serum-containing medium, or (C) PDGF-BB or PMA (100 ng/ml) for another 8 hours before [^3H]-thymidine was added for overnight incubation. (D) A10 VSM cells were transfected with sense and antisense p21^Waf1/Cip1 oligonucleotides as above and treated similarly to (B). DNA synthesis was assessed by [^3H]-thymidine incorporation and is expressed as mean ±s.e.m. of three wells per data point. The absolute counts differ between experiments due to different confluency of the cells. The experiments shown are representative of two separate experiments.
Cell culture and DNA synthesis: Cultures of A10 and A431 cells were obtained from American Type Culture Collection (Rockville Md), were maintained as described (Weiss et al. 1998, Am. J. Physiol. 274, C1521-C1529), and were used between passages 15 and 24 or 25 and 35, respectively. The cells were growth-arrested by placing them in serum-free quiescence medium, exposed to growth factors as indicated, and [^3H]thymidine incorporation assessed as previously described (Weiss and Nuccitelli, 1992, J. Biol. Chem. 267, 5608-5613).
This A431 data is in contrast with that obtained in a variety of VSM cell lines, where cell growth was inhibited by similar oligodeoxynucleotide concentrations in cell stimulated with both PDGF-BB and serum (FIG. 9d).

| Substance | nuclear morphology [1] | caspase-3 cleavage (activity) [2] | growth of tumors in a mouse model of breast cancer [3] | production and secretion of laminin [4] | DNA synthesis upon stimulation with PDGF or serum ([5]; 0 to 400 nM oligodeoxynucleotide) | difference in DNA synthesis between sense and antisense ([5]; up to 800 nM) |
| --- | --- | --- | --- | --- | --- | --- |
| 5′-ATC-CCC-AGC-CGG-TTC-TGA-CAT-3′ (antisense ATCCCCAGCCGGTTCTGACAT; listed as DNA, chemistry not fully specified) [antisense p21 ODN] | nuclear morphological changes consistent with apoptosis | did not show significant caspase-3 cleavage products | – | – | – | – |
| 5′-GACATCACCAGGATCGGACAT-3′ | – | – | attenuates growth of tumors | markedly reduced | no significant change | no difference |
